Several values for one entry are separate records, joined by “and”; a condition that tells them apart may be missing. Equal entries are not always repeated. Marks after values point to notes of the source that are not given here.
What was measured:
K562-R cells = experiment: Chemosensitizing: metabolic activity of K562-R cells cotreated with imatinib (modified MTT assay); format: cell-based, human; details: for chemosensitizing effect, concentration-dependent analysis: 0.5–8 μM (transporter inhibitors 10 to 0.5 μM); for rate of imatinib-triggered cell death: at 10 μM; for metabolic activity of K562-R cells, combination with imatinib: compound 10 μM + imatinib 1 μM
Method: The potential reduction in cell viability was determined using the modified MTT assay.
conc. 10 to 0.5 μM) over 72 h (Figure 3D).
(§1) COS-7 (2 × 10^3 cells per well), IGROV-1 SP (2.5 × 10^3 cells per well), A2780 V SP (1.5 × 10^3 cells per well), PC3-DR (4 × 10^3 cells per well), and DU145-DR (3 × 10^3 cells per well) cells were seeded in 96-well plates in triplicates and after 24 h, the compounds were added at the respective concentrations. K562-R and K562 cells (2 × 10^4 cells per well), were treated with the compounds 2 h after seeding. […] A modified MTT colorimetric assay (EZ4U kit, Biomedica) was used to determine the metabolic activity of the tested cells, according to the manufacturer’s instructions. Absorbance was measured and the optical density of the respective FCS-containing medium and of the substrate was subtracted to exclude nonspecific staining. Metabolic activity in the absence of the compounds (CTR, DMSO) was set to 100% as reference.

[1] = Turbidimetric aqueous solubility; format: physicochemical; details: phosphate buffered saline, estimated precipitation range, PBS pH 7.4, 37 °C
[2] = Hepatocyte stability, human; format: in vitro ADME; details: for half-life at 1 h, 1 µM / hepatocyte CLint at 1 h, 1 µM: human, cryopreserved human hepatocytes; for half-life at 1 h, 1 µM: read-out: hepatocytic stability human t1/2; for hepatocyte CLint at 1 h, 1 µM: after 60 min in HH, read-out: hepatocytic stability human, CLint
Method: Cryopreserved hepatocytes (human and mouse) were used to analyze the stability of the compounds. Hepatocytes (0.5 × 10^6 cells/mL in Williams E medium supplemented with 2 mM L-glutamine and 25 mM N-2-hydroxyethylpiperazin-Ń-ethanesulfonic acid (HEPES)) were preincubated at 37 °C. […] At the appropriate time points, the reactions were stopped by transferring into acetonitrile. After protein precipitation by centrifugation at 3000 rpm for 20 min at 4 °C, the sample supernatants were analyzed by LC–MS/MS analysis (control compounds were included). The elimination rate constant was determined from the ratio of the ln peak area to time. Half-life (t1/2) and intrinsic clearance (CLint) were calculated using the appropriate formulas.

PC3-DR cells = experiment: Chemosensitizing to docetaxel: metabolic activity of PC3-DR cells (MTT); format: cell-based, human; details: compound 10 μM + DTX 12.5 nM, 72 h
Method: (§2) The chemosensitizing efficacy was investigated in the ovarian and prostate cancer cell lines using the above-described metabolic activity assay. Paclitaxel (PTX) served as a reference (CTR) in A2780 V SP and IGROV-1 SP cells and docetaxel (DTX) in PC3-DR and D145-DR cells.
as §1

DU145-DR cells = experiment: Chemosensitizing to docetaxel: metabolic activity of DU145-DR cells (MTT); format: cell-based, human; details: compound 10 μM + DTX 12.5 nM, 72 h
Method: as §2, §1

[3] = molecular target: ABCB1 transporter in K562-R cells (Homo sapiens, UniProt P08183); experiment: Side population (SP) analysis, DCV staining, flow cytometry; details: 10 μM
Method: SP analyses were performed as previously described[45] on a LSRFortessa flow cytometer (BD Biosciences, Vienna, Austria). Briefly, 1 × 10^6 cells/mL were stained with 10 μM Vybrant DyeCycleTM Violet (DCV; Molecular Probes, Eugene, OR) in the presence or absence of the investigated compounds for 90 min at 37 °C. […] Subsequently, the cells were washed and immediately analyzed using flow cytometry. The FlowJo 9.6 software was used for data analyses (Tree Star Software, Ashland, CA).

[4] = tested on: human CML K562-R xenograft; experiment: Efficacy in human CML K562-R xenograft model; format: in vivo, female NOD/SCID mice; design: % T/C (treatment/control) / % TGI (tumor growth inhibition): concentration or dose not given beside the values; details: for Tumor Volume, individual animal / Tumor Volume, group mean: PO QD x 30 days (imatinib 50 mg/kg, 7c 10 mg/kg); for % T/C (treatment/control): mean tumor volume treated vs control; for % TGI (tumor growth inhibition): vs vehicle control
Method: The animals were checked daily for humane end points. Body weight was measured and recorded daily after dosing.
The % T/C value, defined as the ratio of the mean tumor volume for the treated versus control group, was calculated as % T/C = (Tn/Cn) × 100%; whereas Tn: denotes mean tumor volume of the treated group on day n, and Cn: denotes mean tumor volume of the control group on day n. The optimal value is the minimal % T/C ratio, which reflects the maximal tumor growth inhibition achieved.
TGI (Tumor growth inhibition) was calculated by the following formula [drawing 1] [drawing 2]
Whereas: Tn: denotes the mean tumor volume of the treated group on day n; T1: denotes the mean tumor volume of the treated group on day 1; Cn: denotes the mean tumor volume of the vehicle control group on day n; and C1: denotes the mean tumor volume of the vehicle control group at day 1.

[5] = Body weight / tolerability in the K562-R xenograft study; details: for Body Weight, individual animal / Body Weight, group mean: PO QD x 30 days (imatinib 50 mg/kg, 7c 10 mg/kg); for Body Weight, individual animal: animals No. 1–7; for Body Weight, group mean: n = 7

Sequence of ABCB1 transporter in K562-R cells (P08183 whole entry): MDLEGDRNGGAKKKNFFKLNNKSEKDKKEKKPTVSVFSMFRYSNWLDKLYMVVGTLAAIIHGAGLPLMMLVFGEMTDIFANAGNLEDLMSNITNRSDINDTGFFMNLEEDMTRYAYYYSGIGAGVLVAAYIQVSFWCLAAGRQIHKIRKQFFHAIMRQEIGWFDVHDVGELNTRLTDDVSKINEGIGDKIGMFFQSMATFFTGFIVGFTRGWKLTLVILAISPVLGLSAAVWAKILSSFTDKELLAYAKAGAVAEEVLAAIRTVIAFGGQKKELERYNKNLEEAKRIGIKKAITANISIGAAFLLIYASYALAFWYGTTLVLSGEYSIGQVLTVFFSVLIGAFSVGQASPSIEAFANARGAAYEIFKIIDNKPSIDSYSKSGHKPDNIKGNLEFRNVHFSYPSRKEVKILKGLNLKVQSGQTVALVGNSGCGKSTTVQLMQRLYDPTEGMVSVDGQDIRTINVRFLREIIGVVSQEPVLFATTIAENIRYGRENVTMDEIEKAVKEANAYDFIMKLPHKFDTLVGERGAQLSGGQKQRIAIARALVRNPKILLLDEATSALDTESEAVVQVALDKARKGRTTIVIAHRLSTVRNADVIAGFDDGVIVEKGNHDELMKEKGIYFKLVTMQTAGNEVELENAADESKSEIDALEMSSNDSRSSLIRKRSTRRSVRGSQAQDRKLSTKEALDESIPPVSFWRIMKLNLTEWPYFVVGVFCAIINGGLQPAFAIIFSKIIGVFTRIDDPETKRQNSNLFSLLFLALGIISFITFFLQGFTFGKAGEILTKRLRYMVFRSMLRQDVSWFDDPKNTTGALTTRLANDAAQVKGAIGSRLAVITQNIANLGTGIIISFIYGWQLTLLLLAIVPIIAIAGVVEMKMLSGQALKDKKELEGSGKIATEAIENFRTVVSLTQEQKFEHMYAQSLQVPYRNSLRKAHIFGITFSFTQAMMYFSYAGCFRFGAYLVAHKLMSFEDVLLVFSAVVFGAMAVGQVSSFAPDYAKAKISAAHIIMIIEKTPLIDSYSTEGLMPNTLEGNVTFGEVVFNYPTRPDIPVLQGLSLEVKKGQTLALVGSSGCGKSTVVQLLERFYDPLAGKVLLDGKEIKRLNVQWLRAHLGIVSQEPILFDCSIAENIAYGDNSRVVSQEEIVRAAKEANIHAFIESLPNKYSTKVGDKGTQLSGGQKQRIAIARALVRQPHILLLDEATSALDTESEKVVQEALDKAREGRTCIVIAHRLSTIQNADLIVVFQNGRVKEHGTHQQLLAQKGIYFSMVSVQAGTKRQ

## CCCc1nc2c(C)cc(-c3nc4ccccc4n3C)cc2n1Cc1ccc(-c2ccccc2C(=O)OC)cc1 [7b, Methyl 4′-((1,7′-dimethyl-2′-propyl-1H,3′H-[2,5′-bibenzo[d]imidazole]-3′-yl)methyl)-[1,1′-biphenyl]-2-carboxylate]
K562-R cells; K562-R, + imatinib 1 μM, 72 h
  chemosensitizing effect, concentration-dependent analysis: strongly sensitized the cells to imatinib therapy
K562-R cells; K562-R
  rate of imatinib-triggered cell death: > 85%
K562-R cells; 72 h
  metabolic activity of K562-R cells, combination with imatinib: 8–24%
[1]
  solubility at 2 h: < 6.5 µM
[2]; HH
  half-life at 1 h, 1 µM: 18.4 min
[2]
  hepatocyte CLint at 1 h, 1 µM: 75.2 µL/min/1e6 cells
PC3-DR cells
  chemosensitizing to DTX (antimetabolic activity): only marginally increased the antimetabolic activity of DTX
DU145-DR cells
  chemosensitizing to DTX (antimetabolic activity): produced the same effects as 5c and 6c
[3]
  effect on SP phenotype / ABCB1 activity: completely repressed the SP phenotype

## CCCc1nc2c(C)cc(-c3nc4ccccc4n3C)cc2n1Cc1ccc(-c2ccccc2C(N)=O)cc1 [7c, 4′-((1,7′-Dimethyl-2′-propyl-1H,3′H-[2,5′-bibenzo[d]imidazole]-3′-yl)methyl)-[1,1′-biphenyl]-2-carboxamide]
K562-R cells; K562-R, + imatinib 1 μM, 72 h
  chemosensitizing effect, concentration-dependent analysis: strongly sensitized the cells to imatinib therapy
K562-R cells; K562-R, + imatinib 1 μM, 72 h, read-out: SC50 (drug concentration eliciting 50% of the maximum sensitizing effect)
  EC50: 1850 nM
K562-R cells; K562-R
  rate of imatinib-triggered cell death: > 85%
K562-R cells; 72 h
  metabolic activity of K562-R cells, combination with imatinib: 8–24%
[1]
  solubility at 2 h: < 6.5 µM
[2]; HH
  clearance class: medium clearance
  half-life at 1 h, 1 µM: 100 min
[2]
  hepatocyte CLint at 1 h, 1 µM: 13.8 µL/min/1e6 cells
[4]; Day 1, animals No. 1–7
  Tumor Volume, individual animal: 171 mm3 and 163 mm3 and 155 mm3 and 149 mm3 and 140 mm3 and 136 mm3 and 124 mm3
[4]; Day 1, n = 7
  Tumor Volume, group mean: 148 mm3
[4]; Day 5, animals No. 1–7
  Tumor Volume, individual animal: 197 mm3 and 204 mm3 and 162 mm3 and 148 mm3 and 149 mm3 and 187 mm3 and 130 mm3
[4]; Day 5, n = 7
  Tumor Volume, group mean: 168 mm3
[4]; Day 5
  % T/C (treatment/control): 90%
  % TGI (tumor growth inhibition): 46%
[4]; Day 8, animals No. 1–7
  Tumor Volume, individual animal: 202 mm3 and 360 mm3 and 167 mm3 and 154 mm3 and 155 mm3 and 464 mm3 and 133 mm3
[4]; Day 8, n = 7
  Tumor Volume, group mean: 234 mm3
[4]; Day 8
  % T/C (treatment/control): 96%
  % TGI (tumor growth inhibition): 9%
[4]; Day 12, animals No. 1–7
  Tumor Volume, individual animal: 213 mm3 and 711 mm3 and 201 mm3 and 158 mm3 and 164 mm3 and 949 mm3 and 143 mm3
[4]; Day 12, n = 7
  Tumor Volume, group mean: 363 mm3
[4]; Day 12
  % T/C (treatment/control): 88%
  % TGI (tumor growth inhibition): 18%
[4]; Day 15, animals No. 1–7
  Tumor Volume, individual animal: 216 mm3 and 991 mm3 and 317 mm3 and 165 mm3 and 168 mm3 and 1349 mm3 and 143 mm3
[4]; Day 15, n = 7
  Tumor Volume, group mean: 478 mm3
[4]; Day 15
  % T/C (treatment/control): 75%
  % TGI (tumor growth inhibition): 32%
[4]; Day 19, animals No. 1–7
  Tumor Volume, individual animal: 207 mm3 and 1716 mm3 and 521 mm3 and 192 mm3 and 174 mm3 and 1858 mm3 and 148 mm3
[4]; Day 19, n = 7
  Tumor Volume, group mean: 688 mm3
[4]; Day 19
  % T/C (treatment/control): 84%
  % TGI (tumor growth inhibition): 20%
[4]; Day 22, animals No. 1–7
  Tumor Volume, individual animal: 181 mm3 and 2448 mm3 and 891 mm3 and 198 mm3 and 180 mm3 and 2149 mm3 and 149 mm3
[4]; Day 22, n = 7
  Tumor Volume, group mean: 885 mm3
[4]; Day 22
  % T/C (treatment/control): 79%
  % TGI (tumor growth inhibition): 24%
[4]; Day 26, animals No. 1–7
  Tumor Volume, individual animal: 181 mm3 and 2912 mm3 and 1522 mm3 and 206 mm3 and 188 mm3 and 2607 mm3 and 156 mm3
[4]; Day 26, n = 7
  Tumor Volume, group mean: 1110 mm3
[4]; Day 26
  % T/C (treatment/control): 69%
  % TGI (tumor growth inhibition): 34%
[4]; Day 29, animals No. 1–7
  Tumor Volume, individual animal: 184 mm3 and 3497 mm3 and 1803 mm3 and 214 mm3 and 196 mm3 and 2946 mm3 and 163 mm3
[4]; Day 29, n = 7
  Tumor Volume, group mean: 1286 mm3
[4]; Day 29
  % T/C (treatment/control): 65%
  % TGI (tumor growth inhibition): 38%
[4]; Day 33, animals No. 1–7
  Tumor Volume, individual animal: 200 mm3 and 4707 mm3 and 2923 mm3 and 214 mm3 and 196 mm3 and 3520 mm3 and 172 mm3
[4]; Day 33, n = 7
  Tumor Volume, group mean: 1705* mm3
[4]; Day 33
  % T/C (treatment/control): 63%
  % TGI (tumor growth inhibition): 39%
[4]; harvested on day 33, animals No. 1–7
  Tumor Weight, individual animal: 0.078 g and 3.807 g and 2.646 g and 0.268 g and 0.057 g and 4.319 g and 0.060 g
[4]; harvested on day 33, n = 7
  Tumor Weight, group mean: 1.600 g
PC3-DR cells
  chemosensitizing to DTX (antimetabolic activity): most active chemosensitizer
DU145-DR cells
  chemosensitizing to DTX (antimetabolic activity): most active chemosensitizer
[5]; 7c 10 mg/kg, imatinib 50 mg/kg, PO QD × 30 days
  tolerability: well tolerated
[5]; Day 1
  Body Weight, individual animal: 23 g and 25 g and 26 g and 21 g
  Body Weight, group mean: 24.1 g
[5]; Day 5
  Body Weight, individual animal: 23 g and 24 g and 25 g and 26 g and 21 g
[5]; Day 8
  Body Weight, individual animal: 23 g and 22 g and 26 g and 28 g and 24 g
  Body Weight, group mean: 24.0 g
[5]; Day 12
  Body Weight, individual animal: 23 g and 22 g and 25 g and 27 g and 24 g
[5]; Day 15
  Body Weight, individual animal: 23 g and 22 g and 25 g and 27 g and 21 g
  Body Weight, group mean: 23.4 g
[5]; Day 19
  Body Weight, individual animal: 23 g and 25 g and 22 g and 28 g
[5]; Day 22
  Body Weight, individual animal: 24 g and 25 g and 23 g and 27 g and 22 g
  Body Weight, group mean: 24.1 g
[5]; Day 26
  Body Weight, individual animal: 25 g and 26 g and 22 g and 27 g and 23 g
[5]; Day 29
  Body Weight, individual animal: 23 g and 26 g and 21 g and 28 g and 24 g and 22 g
[5]; Day 33
  Body Weight, individual animal: 24 g and 27 g and 22 g and 26 g and 28 g and 23 g
  Body Weight, group mean: 25.1 g
[3]
  effect on SP phenotype / ABCB1 activity: completely repressed the SP phenotype
